Laboratory results from the NIST ThermoML archive (doi:10.1016/j.jct.2018.08.004).

Assay: xn = mol fraction of the nth substance listed
Conditions: for surface tension liquid-gas: Maximal bubble pressure; for mass density: 100 kPa, Liquid, Vibrating tube method

CCCC[n+]1ccccc1.N#C[N-]C#N [1-butylpyridinium dicyanamide] + CCO
Conditions	mass density [kg/m3]	surface tension liquid-gas [mN/m]
288.15 K, x1 = 0.0999	877.29	25.7
288.15 K, x1 = 0.201	930.73	28
288.15 K, x1 = 0.2996	967.04	30.3
288.15 K, x1 = 0.3993	994.22	33.2
288.15 K, x1 = 0.4897	1013.42	35.8
288.15 K, x1 = 0.6017	1032.37	38.3
288.15 K, x1 = 0.693	1044.81	40.9
288.15 K, x1 = 0.7974	1056.62	44.5
288.15 K, x1 = 0.905	1066.7	50.3
288.15 K, x1 = 1	1074.97	56.3
293.15 K, x1 = 0.0999	873.42	25.1
293.15 K, x1 = 0.201	927.12	27.5
293.15 K, x1 = 0.2996	963.57	29.8
293.15 K, x1 = 0.3993	990.86	32.9
293.15 K, x1 = 0.4897	1010.13	35.5
293.15 K, x1 = 0.6017	1029.14	38
293.15 K, x1 = 0.693	1041.62	40.6
293.15 K, x1 = 0.7974	1053.47	44.2
293.15 K, x1 = 0.905	1063.59	50
293.15 K, x1 = 1	1071.9	56
298.15 K, x1 = 0.0999	869.54	24.6
298.15 K, x1 = 0.201	923.5	27.1
298.15 K, x1 = 0.2996	960.1	29.5
298.15 K, x1 = 0.3993	987.5	32.6
298.15 K, x1 = 0.4897	1006.84	35.2
298.15 K, x1 = 0.6017	1025.91	37.7
298.15 K, x1 = 0.693	1038.43	40.3
298.15 K, x1 = 0.7974	1050.31	43.9
298.15 K, x1 = 0.905	1060.48	49.7
298.15 K, x1 = 1	1068.83	55.7
303.15 K, x1 = 0.0999	865.66	24.2
303.15 K, x1 = 0.201	919.87	26.7
303.15 K, x1 = 0.2996	956.64	29.1
303.15 K, x1 = 0.3993	984.14	32.3
303.15 K, x1 = 0.4897	1003.56	34.9
303.15 K, x1 = 0.6017	1022.7	37.4
303.15 K, x1 = 0.693	1035.25	40
303.15 K, x1 = 0.7974	1047.18	43.6
303.15 K, x1 = 0.905	1057.35	49.4
303.15 K, x1 = 1	1065.76	55.5
308.15 K, x1 = 0.0999	861.77	23.8
308.15 K, x1 = 0.201	916.25	26.3
308.15 K, x1 = 0.2996	953.18	28.8
308.15 K, x1 = 0.3993	980.79	31.9
308.15 K, x1 = 0.4897	1000.29	34.5
308.15 K, x1 = 0.6017	1019.5	37
308.15 K, x1 = 0.693	1032.09	39.7
308.15 K, x1 = 0.7974	1044.05	43.3
308.15 K, x1 = 0.905	1054.26	49.1
308.15 K, x1 = 1	1062.7	55.2
313.15 K, x1 = 0.0999	857.88	23.4
313.15 K, x1 = 0.201	912.63	25.9
313.15 K, x1 = 0.2996	949.73	28.3
313.15 K, x1 = 0.3993	977.47	31.4
313.15 K, x1 = 0.4897	997.04	34.1
313.15 K, x1 = 0.6017	1016.31	36.7
313.15 K, x1 = 0.693	1028.95	39.4
313.15 K, x1 = 0.7974	1040.95	43.1
313.15 K, x1 = 0.905	1051.18	48.8
313.15 K, x1 = 1	1059.66	54.9
318.15 K, x1 = 0.0999	853.98	22.7
318.15 K, x1 = 0.201	909.01	25.4
318.15 K, x1 = 0.2996	946.29	27.9
318.15 K, x1 = 0.3993	974.15	31.1
318.15 K, x1 = 0.4897	993.79	33.8
318.15 K, x1 = 0.6017	1013.14	36.4
318.15 K, x1 = 0.693	1025.82	39
318.15 K, x1 = 0.7974	1037.86	42.7
318.15 K, x1 = 0.905	1048.12	48.6
318.15 K, x1 = 1	1056.64	54.5
